What was measured:
[1] = system: ethanol-preferring rats (strain going back to the Finnish AA rat line); assay: Voluntary alcohol consumption of genetic ethanol-preferring rats (free choice of 10% ethanol or water); format: in vivo; settings: for Alcohol consumption, absolute / Food intake / Alcohol preference (proportion of ethanol solution to total amount of drink) / Total amount of drink: n=6; for Food intake / Total amount of drink: not significant
Procedure: Influence of deoxypeganine HCl on the voluntary alcohol consumption of genetic ethanol-preferring rats.
The experimental animals were in each case 6 female rats of a strain which goes back to the Finnish AA rat line. The animals of this inbred strain prefer 10% alcohol as a drinking liquid if pure water is additionally offered to them (free choice).
The animals were kept individually in type 3 Makrolon cages at a room temperature of 23° C. and air changes nine times per hour. Dry feed granules (Altromin 1311; meal to which vitamins, minerals, amino acids and trace elements are added; manufacturer: Altromin
Spezialfutterwerke GmbH, Lage), drinking water and ethanol solution (10% v/v) were available to them in unrestricted amounts only during the dark phase from 20.00 hours to 08.00 hours, namely in special vessels which guarantee loss-free feeding and drinking. The amounts consumed were determined gravimetrically; the amounts of drink automatically and continuously with the aid of twelve weighing cells. The respective proportion of ethanol solution to the total amount of drink in % served as a measure of the alcohol preference: 0% means that only water, no ethanol solution, was drunk, 100% means that exclusively ethanol solution was drunk. The average alcohol preference of the untreated experimental animals was 78% or 83%.
Table: Influence of deoxypeganine HCl on the ingestive behavior of female ethanol-prefering rats (n=6). The values determined during the three-day preliminary period in each case are in round brackets.

[2] = in contrast to neostigmine; cited from earlier work
cholinesterase = settings: known pharmacological properties; cited from earlier work
[3] = summary of the table, 15 and 30 mg/kg orally

Row | Compound | Alcohol consumption, absolute ([1]; 15 mg/kg orally, preliminary period value 6.47 ± 0.43, p<0.01) | Food intake ([1]; 15 mg/kg orally, preliminary period value 55.2 ± 1.3) | Alcohol preference (proportion of ethanol solution to total amount of drink) ([1]; 15 mg/kg orally, preliminary period value 82.8 ± 6.4, p<0.01) | Total amount of drink ([1]; 15 mg/kg orally, preliminary period value 97.2 ± 2.3) | Alcohol consumption, absolute ([1]; 30 mg/kg orally, preliminary period value 6.30 ± 0.34, p<0.001) | Food intake ([1]; 30 mg/kg orally, preliminary period value 55.7 ± 2.1) | Alcohol preference (proportion of ethanol solution to total amount of drink) ([1]; 30 mg/kg orally, preliminary period value 77.8 ± 4.3, p<0.001) | Total amount of drink ([1]; 30 mg/kg orally, preliminary period value 100.9 ± 1.9) | Blood-brain barrier passage [2] | Desire for alcohol [1, 3] | Food intake and total amount of drink [1, 3] | Cholinesterase inhibition, mode of action (cholinesterase) | Degradation of acetylcholine and of dopamine (cholinesterase)
1 | Cl.c1ccc2c(c1)CN1CCCC1=N2 [deoxypeganine HCl] | 3.17 ± 0.89 g/kg of BW | 57.7 ± 2.6 ns g/kg of BW | 45.0 ± 12.9 % | 89.8 ± 5.6 ns g/kg of BW | 3.71 ± 0.42 g/kg of BW | 44.6 ± 7.6 ns g/kg of BW | 51.7 ± 6.4 % | 90.6 ± 6.1 ns g/kg of BW |  |  |  |  | 
2 | c1ccc2c(c1)CN1CCCC1=N2 [deoxypeganine, 1,2,3,9-tetrahydropyrrolo[2,1-b]quinazoline] |  |  |  |  |  |  |  |  | crosses the blood-brain barrier | considerably reduced | not significantly changed | reversibly acting cholinesterase inhibitors | inhibits not only the degradation of acetylcholine, but also that of dopamine
